Patent US20200247812A1 (Integral Biosciences Private Limited, priority 2018, published 2020)

Legend:
[1] = target: T1, ALK 5 (Homo sapiens, UniProt P36897); test: In vitro kinase assay (ALK5 IC50, LanthaScreen Terbium labeled TR-FRET); type: biochemical; conditions: TGF-β kinase 6 nM, ATP 10 μM, read-out: Enzyme Activity ALK 5 IC50
T1 sequence (P36897 34-503): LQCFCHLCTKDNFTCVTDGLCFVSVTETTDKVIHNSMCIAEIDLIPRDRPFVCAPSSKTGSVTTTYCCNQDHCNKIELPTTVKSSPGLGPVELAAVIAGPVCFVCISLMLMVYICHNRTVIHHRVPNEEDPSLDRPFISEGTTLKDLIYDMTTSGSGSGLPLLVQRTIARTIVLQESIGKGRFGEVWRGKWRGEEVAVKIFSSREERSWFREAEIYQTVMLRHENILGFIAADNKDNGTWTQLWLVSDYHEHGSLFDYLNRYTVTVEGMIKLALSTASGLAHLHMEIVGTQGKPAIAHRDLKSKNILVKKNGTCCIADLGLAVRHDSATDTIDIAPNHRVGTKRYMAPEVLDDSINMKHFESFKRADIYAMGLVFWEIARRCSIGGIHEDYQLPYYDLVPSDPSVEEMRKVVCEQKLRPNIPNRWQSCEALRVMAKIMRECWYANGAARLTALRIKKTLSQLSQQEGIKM
Method: Compounds of the invention were screened in an in vitro kinase assay against ALK 5, a members of the TGF-β family of Ser/Thr kinases. Standard kinase testing conditions and techniques were employed. IC50 values of compounds against TGF-ß kinase was determined by LanthaScreen™ Terbium Labeled TR-FRET assay. Kinase assays were performed in 1X kinase buffer (# PV6135, Invitrogen, Life Technologies Grand Island, N.Y.) where total reaction volume was 10 μL in low-volume 384-well plates (#4511, Corning). Serially diluted compounds (3-fold) were incubated with TGF-β kinase (6 nM) for 10 min, following which a mixture of ATP (10 μM) (# A1852, Sigma, St-Louis, Mo.) and fluorescent-PolyGT substrate (200 nM); Cat # PV3610, Invitrogen, Life Technologies Grand Island, N.Y.) was added and incubated in dark at room temperature for 1 h. After 1 h, 10 μL stop solution containing Terbium labeled antibody (4 nM; Cat # PV3529, Invitrogen, Life Technologies Grand Island, N.Y.) and EDTA (# E5134, Sigma, St-Louis, Mo.; 20 mM) in TR-FRET dilution buffer (Cat # PV3574, Invitrogen, Life Technologies Grand Island, N.Y.) was added. Readings were taken in a Synergy Neo Plate reader (BioTek, Winooski) at single excitation of 340 nm and Dual emission at 495 nm and 520 nm respectively.
The % activity of test samples was calculated as (Sample-Min)×100/(Max −Min). [Max: DMSO control, complete reaction with enzyme with DMSO and Min: No enzyme with DMSO]. Percent inhibition (100-% activity) was fitted to the “four-parameter logistic model” in XLfit for determination of IC50 values.

[2] = system: HCT116; test: Cell viability assay (resazurin), HCT116; type: cell-based; conditions: Homo sapiens, HCT-116, 72-144 hr
Method: Different cell lines such as pancreatic, (MIA PaCa-2; ATCC®CRL-1420™ & and Panc-1; CRL-1469™), liver carcinoma (HepG2; ATCC® HB-8065™), lung epithelial carcinoma (A549; ATCC® CCL-185™) and others were seeded in their respective medium (DMEM, Cat #10569044, MEM, Cat #41090036; RPMI, Cat #22400089; all with 10% FBS, Gibco, ThermoFisher) at a cell count of 3000 cells per 100 μl per well in a 96 well edge plate (167425; ThermoFisher). Cells were allowed to grow at 37° C. for 24 hr in 5% CO2 (culture conditions) in a Nuaire incubator (humidified). Serially diluted compounds (100 μl) were added to the culture plate 24 hr later and the cultures were further incubated in culture conditions for specified time depending on doubling time of specific cell line (ranging from 72-144 hr). Experiment was terminated at the completion of incubation time with the drug by replacing the medium with 100 μl of 1 mM of resazurin (R7017; Sigma) prepared in respective culture medium and the plates were further incubated in culture conditions for 4 hr. Fluorescence was then measured using a multimodal plate reader (Biotek Synergy Neo) at an excitation wavelength of 535 nm and emission wavelength of 590 nm to obtain relative fluorescence units. Data analysis was done by subtracting the background fluorescence (only medium blank) value from each reading and then normalizing with the vehicle control (DMSO treated cells) to obtain percent survival/proliferation. Percent survival at different doses was used to calculate IC50 by fitting the curve to the “four-parameter variable slope logistic model” using Prism Graph Pad.

[3] = system: phosphorylation of Smad-2 in THP-1 cells; test: Inhibition of phosphorylation of Smad-2 in THP-1 cells (Phospho-Smad2 ELISA); type: cell-based

Work on `CCc1[nH]c(=O)c(-c2ccc(F)c(Cl)c2)cc1Nc1ccnc2[nH]ccc12` [Compound 1.90, 5-((1H-pyrrolo[2,3-b]pyridin-4-yl)amino)-3-(3-chloro-4-fluorophenyl)-6-ethylpyridin-2(1H)-one] yielded an IC50 [1] of at most 500 nM.
`CC(=O)Nc1cc(Nc2cc(-c3ccc(F)c(Cl)c3)c(=O)[nH]c2C(C)C)ccn1` [Compound 1.58, N-(4-((5-(3-chloro-4-fluorophenyl)-2-isopropyl-6-oxo-1,6-dihydropyridin-3-yl)amino)pyridin-2-yl)acetamide] showed an IC50 [1] of at most 500 nM.
With `CCc1[nH]c(=O)c(-c2ccc(F)c(Cl)c2)cc1Nc1ccnc2ccncc12` [Compound 1.87, 5-((1,6-naphthyridin-4-yl)amino)-3-(3-chloro-4-fluorophenyl)-6-ethylpyridin-2(1H)-one] the IC50 [1] was at most 500 nM.
`CN(C)c1[nH]c(=O)c(-c2cc(Cl)ccc2F)cc1Nc1ccncc1C1=NCCN1` [Compound 1.35, 3-(5-chloro-2-fluorophenyl)-5-((3-(4,5-dihydro-1H-imidazol-2-yl)pyridin-4-yl)amino)-6-(dimethylamino)pyridin-2(1H)-one] gave an IC50 [1] of 2000 to 5000 nM.
`COC(=O)c1cnccc1Nc1cc(-c2cc(Cl)ccc2F)c(=O)[nH]c1N(C)C` [Compound 1.29, methyl 4-((5-(5-chloro-2-fluorophenyl)-2-(dimethylamino)-6-hydroxypyridin-3-yl)amino)nicotinate] was tested, and the IC50 [2] was over 30000 nM and the IC50 [1] was 500 to 2000 nM.
`CN(C)c1[nH]c(=O)c(-c2cc(Cl)ccc2F)cc1Nc1ccnc2ccccc12` [Compound 1.16, 3-(5-chloro-2-fluorophenyl)-6-(dimethylamino)-5-(quinolin-4-ylamino)pyridin-2(1H)-one] was tested, and the IC50 [1] was over 5000 nM.
`CC(C)c1[nH]c(=O)c(-c2cc(Cl)ccc2F)cc1Nc1ccnc2c1CCC(=O)N2` [Compound 1.62, 5-((5-(5-chloro-2-fluorophenyl)-2-isopropyl-6-oxo-1,6-dihydropyridin-3-yl)amino)-3,4-dihydro-1,8-naphthyridin-2(1H)-one] was tested, and the IC50 [1] was over 5000 nM.
In the case of `CC(C)c1[nH]c(=O)c(-c2cc(Cl)ccc2F)cc1Nc1ccnc(NC(=O)C(C)(C)C)c1` [Compound 1.49, N-(4-((5-(5-chloro-2-fluorophenyl)-2-isopropyl-6-oxo-1,6-dihydropyridin-3-yl)amino)pyridin-2-yl)pivalamide], the IC50 [1] is reported as over 5000 nM.
Molecule `CC(C)c1[nH]c(=O)c(-c2cc(Cl)ccc2F)cc1Nc1ccnc2[nH]ccc(=O)c12` [Compound 1.59, 5-((5-(5-chloro-2-fluorophenyl)-2-isopropyl-6-oxo-1,6-dihydropyridin-3-yl)amino)-1,8-naphthyridin-4(1H)-one] has an IC50 [1] of over 5000 nM.
In the case of `C[C@H](O)CNC(=O)c1cnccc1Nc1cc(-c2cc(Cl)ccc2F)c(=O)[nH]c1N(C)C` [Compound 1.9, (S)-4-((5-(5-chloro-2-fluorophenyl)-2-(dimethylamino)-6-hydroxypyridin-3-yl)amino)-N-(2-hydroxypropyl)nicotinamide], the IC50 [1] is reported as 2000 to 5000 nM.
In the case of `C[C@H](CO)NC(=O)c1cnccc1Nc1cc(-c2cc(Cl)ccc2F)c(=O)n2c1N(C)CCC2` [Compound 1.25, (R)-4-((7-(5-chloro-2-fluorophenyl)-1-methyl-6-oxo-1,3,4,6-tetrahydro-2H-pyrido[1,2-a]pyrimidin-9-yl)amino)-N-(1-hydroxypropan-2-yl)nicotinamide], the IC50 [1] is reported as over 5000 nM.
Molecule `CC(C)c1[nH]c(=O)c(-c2ccccc2F)cc1Nc1ccncc1C(=O)NC[C@H](C)O` [Compound 1.3, (S)-4-((5-(2-fluorophenyl)-2-isopropyl-6-oxo-1,6-dihydropyridin-3-yl)amino)-N-(2-hydroxypropyl)nicotinamide] has an IC50 [1] of 2000 to 5000 nM.
`CN(C)c1[nH]c(=O)c(-c2cc(Cl)ccc2F)cc1Nc1ccncc1` [Compound 1.14, 3-(5-chloro-2-fluorophenyl)-6-(dimethylamino)-5-(pyridin-4-ylamino)pyridin-2(1H)-one] was tested, and the IC50 [1] was over 5000 nM.
`CC(C)c1[nH]c(=O)c(-c2cc(Cl)ccc2F)cc1Nc1ccnc2ccncc12` [Compound 1.42, 5-((1,6-naphthyridin-4-yl)amino)-3-(5-chloro-2-fluorophenyl)-6-isopropylpyridin-2(1H)-one] was tested, and the IC50 [1] was 2000 to 5000 nM.
`CC(C)c1[nH]c(=O)c(-c2ccc(F)nc2)cc1Nc1ccnc2[nH]ccc12` [Compound 1.52, 5-((1H-pyrrolo[2,3-b]pyridin-4-yl)amino)-6′-fluoro-6-isopropyl-[3,3′-bipyridin]-2(1H)-one] showed an IC50 [1] of over 5000 nM.
Work on `C[C@H](O)CNC(=O)c1cnccc1Nc1cc(-c2cc(Cl)ccc2F)c(=O)n2c1N(C)CC2` [Compound 1.19, (S)-4-((6-(5-chloro-2-fluorophenyl)-1-methyl-5-oxo-1,2,3,5-tetrahydroimidazo[1,2-a]pyridin-8-yl)amino)-N-(2-hydroxypropyl)nicotinamide] yielded an IC50 [1] of 2000 to 5000 nM.
Work on `Cc1cc(-c2cc(Nc3ncnc4c3CC(=O)N4)c(C(C)C)[nH]c2=O)ccc1F` [Compound 1.82, 4-((5-(4-fluoro-3-methylphenyl)-2-isopropyl-6-oxo-1,6-dihydropyridin-3-yl)amino)-5,7-dihydro-6H-pyrrolo[2,3-d]pyrimidin-6-one] yielded an IC50 [1] of 2000 to 5000 nM.
Molecule `C[C@@H](CO)NC(=O)c1cnccc1Nc1cc(-c2cc(Cl)ccc2F)c(=O)n2c1N(C)CC2` [Compound 1.22, (S)-4-((6-(5-chloro-2-fluorophenyl)-1-methyl-5-oxo-1,2,3,5-tetrahydroimidazo[1,2-a]pyridin-8-yl)amino)-N-(1-hydroxypropan-2-yl)nicotinamide] has an IC50 [1] of 2000 to 5000 nM.
For `NC(=O)c1cnccc1Nc1cc(-c2cc(Cl)ccc2F)c(=O)[nH]c1C1CC1` [Compound 1.74, 4-((5-(5-chloro-2-fluorophenyl)-2-cyclopropyl-6-oxo-1,6-dihydropyridin-3-yl)amino)nicotinamide], the IC50 [1] was at most 500 nM.
With `CC(C)c1[nH]c(=O)c(-c2cc(Cl)ccc2F)cc1Nc1ccncc1C(=O)N[C@@H](C)CO` [Compound 1.6] the IC50 [1] was 500 to 2000 nM.
For `CC(C)c1[nH]c(=O)c(-c2cc(Cl)ccc2F)cc1Nc1ccncc1C(=O)NC[C@H](C)O` [Compound 1.5, (S)-4-((5-(5-chloro-2-fluorophenyl)-2-isopropyl-6-oxo-1,6-dihydropyridin-3-yl)amino)-N-(2-hydroxypropyl)nicotinamide], the “% Inhibition of pSmad2” value ([3]; 3 μg) was 47.3%, the “% Inhibition of pSmad2” value ([3]; 10 μg) was 53.3% and the IC50 [1] was at most 500 nM.
`CC(C)c1[nH]c(=O)c(-c2ccc(F)c(Cl)c2)cc1Nc1ncnc2c1CC(=O)N2` [Compound 1.85, 4-((5-(3-chloro-4-fluorophenyl)-2-isopropyl-6-oxo-1,6-dihydropyridin-3-yl)amino)-5,7-dihydro-6H-pyrrolo[2,3-d]pyrimidin-6-one] was tested, and the IC50 [1] was 500 to 2000 nM.
